Holding throughout (test): biochemical
Common to all, as to type: binding

For one assay, the target named is T1, HLA-DRB1*0401 (Homo sapiens, UniProt P01903+P01911, A100K/A169T/F76Y/I96L/K127E/L162R/M171V/N62H/P40V/Q125Y/R42H/S133A/S149N/S66Y/V115G/V209L/W38E).
T1 construct: purchased
The following applies: binding inhibition assay; NB = non-binder (no dose-dependent inhibition); read-out: DRB1*0401 IC50. How it is done:
(§1) The binding assay conducted by EpiVax yields an indirect measure of peptide-MHC affinity as it utilizes a competition assay format per the methodology described in Steere et al. ([35]). […] Post incubation, the mixtures are moved to a 96-well plate coated with anti-HLA-DR antibody to capture HLA-peptide complexes. Time-resolved fluorescence measurement of the bound labeled reference peptide complex present in each mixture is detected with a europium-linked probe via fluorescent spectrophotometry using a SpectraMax M5 system. HLA binding affinity of each test peptide is expressed as the percent inhibition of reference peptide binding. Percent inhibition values (across the test peptide titration range) are used to calculate the half maximal inhibitory concentration (IC50) of each test peptide. For these studies, test peptides were assessed using a range of final concentrations from 100,000 nM to 100 nM. The panel of commercially-available HLA-DRB1 allele monomers used includes: *0101, *0301, *0401, *0701, *0801, *1101, *1301 and *1501. EpiVax established HLA-DRB1 binding affinity cutoffs were used to rank the IC50 values.
(§2) In vitro HLA binding assays (step 2 of workflow shown in Figure 1 ) were carried out with the synthesized peptides to verify the EpiMatrix outputs and provide a measure of accuracy for comparing in silico-predicted HLA-DRB1 allele binding to laboratory assessments of HLA-DRB1 allele binding. These assessments were conducted using a competition assay format whereby IC50 values were calculated based on the ability of the test peptide to compete with a labeled, high binding affinity reference peptide for HLA-DRB1 molecule binding. Sequences for the high affinity reference peptides and the negative control peptide, known not to bind any of the HLA-DRB1 molecules, are provided in Table S18 .

The target in another assay is HLA-DRB1*0801 (Homo sapiens, UniProt P01903+P01911, A100R/A103L/A169T/D86S/F76Y/H45Y/I96F/K41T/L162R/M171V/P40S/Q125H/Q178H/Q39Y/Q99D/R218S/R42G/S66Y/V115G/W38E). The following applies: binding inhibition assay; NB = non-binder (no dose-dependent inhibition); read-out: DRB1*0801 IC50. The procedure: as §1, §2
The next assay addresses HLA-DRB1*0701 (Homo sapiens, UniProt P01903+P01911, A100R/A102G/A103Q/D57E/D86V/E43K/F76Y/K127E/L162R/M171V/P40G/Q125H/Q99D/R33Q/R42Y/R54Q/S133A/S66F/T210M/V115G/Y107V/Y59L/Y89S). The following applies: binding inhibition assay; NB = non-binder (no dose-dependent inhibition); read-out: DRB1*0701 IC50. How it is done: as §1, §2
The target in another assay is T2, HLA-DRB1*0101 (Homo sapiens, UniProt P01903+P01911, A100R/D57E/F55L/F60I/F76Y/I96L/L162R/M171V/P40L/Q125E/R42F/V115G/Y59C).
T2 construct: purchased
The following applies: binding inhibition assay; NB = non-binder (no dose-dependent inhibition); read-out: DRB1*0101 IC50. How it is done: as §1, §2

The next assay concerns the target T3, HLA-DRB1*1501 (Homo sapiens, UniProt P01903+P01911).
T3 construct: purchased
The following applies: binding inhibition assay; NB = non-binder (no dose-dependent inhibition); read-out: DRB1*1501 IC50. The procedure: as §1, §2

The next assay has as its target HLA-DRB1*1101 (Homo sapiens, UniProt P01903+P01911, A100R/A169T/A87E/I96F/K41T/L162R/M171V/P40S/Q125H/Q178H/Q39Y/Q99D/R42S/S66Y/T262R/V115G/W38E). Particulars: binding inhibition assay; NB = non-binder (no dose-dependent inhibition); read-out: DRB1*1101 IC50. How it is done:
as §1, §2

The target of another assay is HLA-DRB1*1301 (Homo sapiens, UniProt P01903+P01911, A100E/A169T/K41T/L162R/M171V/P40S/Q125H/Q178H/Q39Y/Q99D/R42S/S66N/T262R/W38E/Y61H). The following applies: binding inhibition assay; NB = non-binder (no dose-dependent inhibition); read-out: DRB1*1301 IC50. How it is done:
as §1, §2

8 compounds from publication PMC8294059, “Identification and Immune Assessment of T Cell Epitopes in Five Plasmodium falciparum Blood Stage Antigens to Facilitate Vaccine Candidate Selection and Optimization” (Frontiers in Immunology, 2021) can be followed below.

Structures are written as SMILES. Where a SMILES comes first, the peptide text is derived from it.

HLA-DRB1*1101, sequence (P01903 26-254 limits assumed, other chains not shown): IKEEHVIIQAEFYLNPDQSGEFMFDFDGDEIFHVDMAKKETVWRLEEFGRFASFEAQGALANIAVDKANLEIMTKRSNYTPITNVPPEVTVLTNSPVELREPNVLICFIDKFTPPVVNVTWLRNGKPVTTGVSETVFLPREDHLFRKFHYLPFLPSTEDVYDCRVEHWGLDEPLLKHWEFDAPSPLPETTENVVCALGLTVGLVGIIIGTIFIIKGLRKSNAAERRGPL

As for `CSCC[C@H](N)C(=O)N[C@@H](CCCNC(=N)N)C(=O)N[C@@H](CCCCN)C(=O)N[C@@H](CC(C)C)C(=O)N[C@@H](Cc1ccc(O)cc1)C(=O)N[C@@H](CS)C(=O)N[C@H](C(=O)N[C@@H](CC(C)C)C(=O)N[C@@H](CC(C)C)C(=O)N[C@@H](CC(C)C)C(=O)N[C@@H](CO)C(=O)N[C@@H](C)C(=O)N[C@@H](Cc1ccccc1)C(=O)N[C@@H](CCC(=O)O)C(=O)N[C@@H](Cc1ccccc1)C(=O)N[C@H](C(=O)N[C@@H](Cc1ccc(O)cc1)C(N)=O)[C@@H](C)O)C(C)C` [AMA1_001] (H-MRKLYCVLLLSAFEFTY-NH2), the concentration for half-maximal inhibition (IC50) on HLA-DRB1*0401 is 1470 nM; on HLA-DRB1*0801 it was 17300 nM; at HLA-DRB1*0701, 206 nM; at HLA-DRB1*0101, 394 nM; at HLA-DRB1*1501 it was 751 nM; at HLA-DRB1*1101, 320 nM. In addition, at HLA-DRB1*1301, the IC50 was found to be 1790 nM.
`CC[C@H](C)[C@H](NC(=O)[C@H](CCSC)NC(=O)[C@H](Cc1ccc(O)cc1)NC(=O)[C@@H](NC(=O)[C@H](Cc1ccccc1)NC(=O)[C@H](CCC(=O)O)NC(=O)[C@H](Cc1ccccc1)NC(=O)[C@H](C)N)[C@@H](C)O)C(=O)N[C@@H](CC(N)=O)C(=O)N[C@@H](Cc1ccccc1)C(=O)NCC(=O)N[C@@H](CCCNC(=N)N)C(=O)NCC(=O)N[C@@H](CCC(N)=O)C(=O)N[C@@H](CC(N)=O)C(=O)N[C@@H](Cc1ccc(O)cc1)C(=O)N[C@@H](Cc1c[nH]c2ccccc12)C(=O)N[C@@H](CCC(=O)O)C(N)=O` [AMA1_002] (H-AFEFTYMINFGRGQNYWE-NH2): the concentration for half-maximal inhibition (IC50) was found to be 45 nM at HLA-DRB1*0401; 239 nM at HLA-DRB1*0801; 113 nM at HLA-DRB1*0701; 117 nM on HLA-DRB1*0101; 76 nM at HLA-DRB1*1501; 236 nM on HLA-DRB1*1101. Moreover, the IC50 at HLA-DRB1*1301 was determined as 723 nM.
For `CC(=O)N[C@@H](Cc1ccccc1)C(=O)N[C@@H](CCC(N)=O)C(=O)N[C@@H](CC(N)=O)C(=O)N[C@@H](Cc1ccc(O)cc1)C(=O)N[C@H](C(=O)N[C@@H](Cc1ccc(O)cc1)C(=O)N[C@@H](CC(C)C)C(=O)N[C@@H](CO)C(=O)N[C@@H](CCCCN)C(=O)N[C@@H](CC(N)=O)C(=O)N[C@H](C(=O)N[C@H](C(=O)N[C@@H](CC(=O)O)C(=O)N[C@@H](CC(N)=O)C(=O)N[C@@H](Cc1c[nH]c2ccccc12)C(=O)N[C@@H](CCC(=O)O)C(N)=O)C(C)C)C(C)C)[C@@H](C)O` [AMA1_004] (Ac-FQNYTYLSKNVVDNWE-NH2), the IC50 at HLA-DRB1*0401 was determined as 9690 nM; on HLA-DRB1*0801 it was 10 nM; on HLA-DRB1*0701, 9480 nM; at HLA-DRB1*0101 it was 16 nM; on HLA-DRB1*1501 it was 248 nM; on HLA-DRB1*1101 it was 567 nM. For the same compound, the IC50 on HLA-DRB1*1301 is 70000 nM.
For the compound `CC[C@H](C)[C@H](NC(=O)[C@@H](NC(=O)[C@H](C)NC(=O)[C@H](CC(C)C)NC(C)=O)[C@@H](C)O)C(=O)N[C@@H](CC(C)C)C(=O)N[C@@H](CCSC)C(=O)N[C@H](C(=O)N[C@@H](Cc1ccc(O)cc1)C(=O)N[C@@H](CC(C)C)C(=O)N[C@@H](Cc1ccc(O)cc1)C(=O)N[C@@H](CCCCN)C(=O)N[C@@H](CCCNC(=N)N)C(=O)N[C@@H](CCCCN)C(=O)NCC(=O)N[C@@H](CC(N)=O)C(=O)N[C@@H](C)C(=O)N[C@@H](CCC(=O)O)C(=O)N[C@@H](CCCCN)C(=O)N[C@@H](Cc1ccc(O)cc1)C(=O)N[C@@H](CC(=O)O)C(=O)N[C@@H](CCCCN)C(N)=O)C(C)C` [AMA1_009] (Ac-LATILMVYLYKRKGNAEKYDK-NH2), the IC50 on HLA-DRB1*0401 is 11100 nM; at HLA-DRB1*0801 it was 7980 nM; at HLA-DRB1*0701, 3400 nM; at HLA-DRB1*0101, 10000 nM; at HLA-DRB1*1501 it was 2440 nM; on HLA-DRB1*1101, 165 nM. Moreover, the IC50 on HLA-DRB1*1301 was determined as 4400 nM.
For the compound `CC[C@H](C)[C@H](NC(=O)[C@H](Cc1ccccc1)NC(=O)[C@H](CC(N)=O)NC(=O)[C@@H](NC(=O)[C@H](CC(N)=O)NC(=O)[C@H](CCCCN)NC(=O)[C@@H](NC(=O)[C@H](CC(N)=O)NC(=O)[C@H](CC(N)=O)NC(=O)[C@@H](NC(=O)[C@H](CC(N)=O)NC(=O)[C@H](CC(=O)O)NC(=O)CNC(=O)[C@@H](NC(=O)[C@H](Cc1ccc(O)cc1)NC(=O)[C@H](Cc1ccccc1)NC(=O)[C@@H](N)Cc1c[nH]cn1)C(C)C)[C@@H](C)CC)C(C)C)C(C)C)C(=O)N[C@@H](CCC(=O)O)C(N)=O` [CYRPA_005] (H-HFYVGDNINNVKNVNFIE-NH2), the half-inhibitory concentration (IC50) at HLA-DRB1*0401 came out at 78 nM; on HLA-DRB1*0801, 11800 nM; on HLA-DRB1*0701, 137 nM; at HLA-DRB1*0101 it was 182 nM; at HLA-DRB1*1501, 122 nM; on HLA-DRB1*1101 it was 293 nM. On HLA-DRB1*1301, the half-maximal inhibitory concentration (IC50) was found to be 633 nM.
As to `CC[C@H](C)[C@H](NC(=O)[C@H](CCCCN)NC(=O)CNC(=O)[C@@H](NC(=O)[C@H](CC(C)C)NC(=O)[C@H](CCCCN)NC(=O)[C@H](CCCNC(=N)N)NC(=O)[C@H](CC(N)=O)NC(=O)[C@H](CO)NC(=O)[C@H](CC(C)C)NC(=O)[C@H](CC(=O)O)NC(=O)[C@H](CC(N)=O)NC(=O)[C@H](Cc1c[nH]c2ccccc12)NC(=O)[C@H](Cc1ccc(O)cc1)NC(=O)[C@H](CC(=O)O)NC(=O)[C@@H](NC(=O)CNC(C)=O)[C@@H](C)O)C(C)C)C(=O)N[C@@H](CC(N)=O)C(=O)N[C@H](C(=O)N[C@@H](CC(N)=O)C(N)=O)[C@@H](C)O` [EBA175_011] (Ac-GTDYWNDLSNRKLVGKINTN-NH2), the IC50 is 52700 nM at HLA-DRB1*0401; above 100000 nM at HLA-DRB1*0801; 462 nM on HLA-DRB1*0101; 54200 nM at HLA-DRB1*1501; 28600 nM on HLA-DRB1*1101; above 100000 nM on HLA-DRB1*1301.
As to `CC[C@H](C)[C@H](NC(=O)[C@H](CC(=O)O)NC(=O)[C@@H]1CCCN1C(=O)[C@H](CC(C)C)NC(=O)[C@@H](NC(=O)[C@H](CO)NC(=O)[C@H](CO)NC(=O)[C@H](CC(N)=O)NC(=O)[C@H](Cc1ccc(O)cc1)NC(=O)[C@H](CC(C)C)NC(=O)[C@H](CO)NC(=O)[C@@H]1CCCN1C(=O)[C@@H](NC(=O)[C@H](CC(N)=O)NC(=O)[C@H](CO)NC(=O)[C@H](Cc1c[nH]cn1)NC(=O)[C@H](CC(C)C)NC(=O)[C@H](Cc1c[nH]cn1)NC(=O)[C@H](CO)NC(=O)[C@H](CC(N)=O)NC(=O)[C@H](CCCCN)NC(C)=O)[C@@H](C)CC)[C@@H](C)CC)C(=O)N[C@@H](CC(N)=O)C(=O)N[C@@H](CCCCN)C(=O)N[C@@H](CO)C(N)=O` [RIPR_008] (Ac-KNSHLHSNIPSLYNSSILPDINKS-NH2), the half-inhibitory concentration (IC50) on HLA-DRB1*0401 amounted to 48500 nM; on HLA-DRB1*0801, 9430 nM; on HLA-DRB1*0701, 65700 nM; at HLA-DRB1*0101 it was 400 nM; at HLA-DRB1*1501, 700 nM; on HLA-DRB1*1101, 92200 nM.
As for `CC[C@H](C)[C@H](NC(=O)[C@H](CC(C)C)NC(=O)[C@H](Cc1c[nH]cn1)NC(=O)[C@H](Cc1ccccc1)NC(=O)[C@H](CCCCN)NC(=O)[C@H](CO)NC(=O)[C@H](CCCCN)NC(C)=O)C(=O)N[C@@H](CO)C(=O)N[C@@H](CCCNC(=N)N)C(=O)N[C@@H](CC(N)=O)C(=O)N[C@@H](CO)C(=O)N[C@@H](CCCNC(=N)N)C(=O)N[C@H](C(=O)N[C@@H](CC(N)=O)C(=O)N[C@@H](CCC(N)=O)C(=O)N[C@@H](Cc1ccc(O)cc1)C(N)=O)[C@@H](C)O` [RIPR_009] (Ac-KSKFHLISRNSRTNQY-NH2), the IC50 came out at 59100 nM on HLA-DRB1*0401; 63400 nM on HLA-DRB1*0801; 441 nM on HLA-DRB1*0101; 15800 nM at HLA-DRB1*1501; 75 nM at HLA-DRB1*1101; 64 nM at HLA-DRB1*1301.
